Values quoted from earlier work in patent US20090186826A1, “Cosmetic or dermopharmaceutical compositions of ceramides and polypeptides” (SEDERMA, priority 2003, published 2009).
Where no end group is shown, it is not given here.

Tested on: fibroblasts
Conditions: reported by Senior et al. J. Cell Biol. 99, 870-874, 1984

For “VGVAPG [fragment of the protein called elastin]”, the chemotactic activity is listed as “chemotactic activity”.
